The results in this text go back to ChEMBL document CHEMBL3132769, “Fragment growing to retain or alter the selectivity of anchored kinase hinge-binding fragments” (Medchemcomm, 2014).

One may read the inhibition as the change of the read-out against control, counted positive when it falls.

The subject of assay [1] is Tyrosine-protein kinase ABL1 (Homo sapiens), P00519 [H396P]. In words: Inhibition of human truncated ABL H396P mutant expressed in baculovirus assessed as substrate phosphorylation using fluorescence-labelled peptides as substrate at 8 uM after 90 mins by microfluidic peptide phosphorylation assay.
For assay [2], the system named is Tyrosine-protein kinase ABL1 (Homo sapiens), P00519 [T315I]. In words: Inhibition of human truncated ABL T315I mutant expressed in baculovirus assessed as substrate phosphorylation using fluorescence-labelled peptides as substrate at 8 uM after 90 mins by microfluidic peptide phosphorylation assay.
In assay [3] the target is Proto-oncogene tyrosine-protein kinase Src (Homo sapiens) (UniProt P12931). Nature of the assay: Inhibition of human full length SRC expressed in baculovirus assessed as substrate phosphorylation using fluorescence-labelled peptides as substrate at 0.1 uM after 90 mins by microfluidic peptide phosphorylation assay.
Assay [4] has as its target T1, Serine/threonine-protein kinase Sgk2 (Homo sapiens) (UniProt Q9HBY8).
T1 sequence (whole entry): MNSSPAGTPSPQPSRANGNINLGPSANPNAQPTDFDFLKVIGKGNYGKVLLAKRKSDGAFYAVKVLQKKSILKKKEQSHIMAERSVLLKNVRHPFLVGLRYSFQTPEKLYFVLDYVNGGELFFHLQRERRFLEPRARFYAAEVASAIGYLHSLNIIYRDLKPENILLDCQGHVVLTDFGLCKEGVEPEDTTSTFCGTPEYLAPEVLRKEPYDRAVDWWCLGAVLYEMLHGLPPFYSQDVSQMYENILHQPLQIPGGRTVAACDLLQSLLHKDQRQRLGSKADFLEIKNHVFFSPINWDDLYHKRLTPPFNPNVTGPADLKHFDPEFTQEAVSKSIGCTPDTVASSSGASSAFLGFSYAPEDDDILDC
In words: Inhibition of human full length SGK2 expressed in baculovirus assessed as substrate phosphorylation using fluorescence-labelled peptides as substrate at 0.1 uM after 90 mins by microfluidic peptide phosphorylation assay.

The target of assay [5] is T2, Interleukin-1 receptor-associated kinase 4 (Homo sapiens) (UniProt Q9NWZ3).
T2 sequence (whole entry): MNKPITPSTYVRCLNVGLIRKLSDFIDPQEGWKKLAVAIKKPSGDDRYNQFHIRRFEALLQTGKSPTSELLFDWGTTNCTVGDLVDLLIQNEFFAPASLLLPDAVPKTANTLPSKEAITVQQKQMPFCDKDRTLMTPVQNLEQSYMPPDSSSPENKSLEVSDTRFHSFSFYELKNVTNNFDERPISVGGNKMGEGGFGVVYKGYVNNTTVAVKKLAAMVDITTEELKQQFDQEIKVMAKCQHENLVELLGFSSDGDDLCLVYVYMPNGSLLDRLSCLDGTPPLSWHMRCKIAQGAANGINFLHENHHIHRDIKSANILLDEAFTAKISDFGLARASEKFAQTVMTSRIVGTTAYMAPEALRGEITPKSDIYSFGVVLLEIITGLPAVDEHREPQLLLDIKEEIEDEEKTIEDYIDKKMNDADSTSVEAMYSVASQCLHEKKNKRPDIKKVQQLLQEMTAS
Nature of the assay: Inhibition of human IRAK4 catalytic domain expressed in baculovirus assessed as substrate phosphorylation using fluorescence-labelled peptides as substrate at 0.06 uM after 90 mins by microfluidic peptide phosphorylation assay.

Assay [6] has as its target Protein kinase C delta type (Homo sapiens) (UniProt Q05655). Nature of the assay: Inhibition of human truncated PKC delta expressed in baculovirus assessed as substrate phosphorylation using fluorescence-labelled peptides as substrate at 0.2 uM after 90 mins by microfluidic peptide phosphorylation assay.
In assay [7] the target is Protein kinase C gamma type (Homo sapiens) (UniProt P05129). Nature of the assay: Inhibition of human truncated PKC gamma expressed in baculovirus assessed as substrate phosphorylation using fluorescence-labelled peptides as substrate at 9 uM after 90 mins by microfluidic peptide phosphorylation assay.
The target of assay [8] is T3, Serine/threonine-protein kinase 3 (Homo sapiens) (UniProt Q13188).
T3 sequence (whole entry): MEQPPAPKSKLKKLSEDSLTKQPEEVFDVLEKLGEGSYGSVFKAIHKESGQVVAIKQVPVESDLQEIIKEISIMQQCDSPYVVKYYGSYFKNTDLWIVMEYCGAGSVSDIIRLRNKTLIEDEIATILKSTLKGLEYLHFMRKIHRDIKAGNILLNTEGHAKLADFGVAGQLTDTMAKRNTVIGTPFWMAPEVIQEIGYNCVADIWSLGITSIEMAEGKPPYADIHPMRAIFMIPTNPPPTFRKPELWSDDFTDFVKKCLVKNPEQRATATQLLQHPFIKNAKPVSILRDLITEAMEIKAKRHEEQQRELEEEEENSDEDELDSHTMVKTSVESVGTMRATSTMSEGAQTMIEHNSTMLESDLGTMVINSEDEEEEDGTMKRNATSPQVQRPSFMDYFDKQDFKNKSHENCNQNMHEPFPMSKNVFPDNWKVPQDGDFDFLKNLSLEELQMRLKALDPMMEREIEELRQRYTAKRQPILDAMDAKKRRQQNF
Nature of the assay: Inhibition of human full length MST2 expressed in baculovirus assessed as substrate phosphorylation using fluorescence-labelled peptides as substrate at 9 uM after 90 mins by microfluidic peptide phosphorylation assay.

Assay [9] deals with Serine/threonine-protein kinase pim-1 (Homo sapiens) (UniProt P11309). Nature of the assay: Inhibition of human full length PIM1 expressed in baculovirus assessed as substrate phosphorylation using fluorescence-labelled peptides as substrate at 9 uM after 90 mins by microfluidic peptide phosphorylation assay.
Assay [10] addresses Tyrosine-protein kinase Lck (Homo sapiens) (UniProt P06239). Nature of the assay: Inhibition of human full length LCK expressed in baculovirus assessed as substrate phosphorylation using fluorescence-labelled peptides as substrate at 70 uM after 90 mins by microfluidic peptide phosphorylation assay.
Assay [11] has as its target Fibroblast growth factor receptor 3 (Homo sapiens) (UniProt P22607). In words: Inhibition of human FGFR3 catalytic domain expressed in baculovirus assessed as substrate phosphorylation using fluorescence-labelled peptides as substrate at 70 uM after 90 mins by microfluidic peptide phosphorylation assay.
Assay [12] concerns the target Platelet-derived growth factor receptor alpha (Homo sapiens) (UniProt P16234). In words: Inhibition of human PDGFR alpha catalytic domain expressed in baculovirus assessed as substrate phosphorylation using fluorescence-labelled peptides as substrate at 2 uM after 90 mins by microfluidic peptide phosphorylation assay.
The target in assay [13] is Protein kinase C delta type (Homo sapiens) (UniProt Q05655). Nature of the assay: Inhibition of human truncated PKC delta expressed in baculovirus assessed as substrate phosphorylation using fluorescence-labelled peptides as substrate at 95 uM after 90 mins by microfluidic peptide phosphorylation assay.
In assay [14] the target is Hepatocyte growth factor receptor (Homo sapiens) (UniProt P08581). In words: Inhibition of human MET cytoplasmic domain expressed in baculovirus assessed as substrate phosphorylation using fluorescence-labelled peptides as substrate at 1000 uM after 90 mins by microfluidic peptide phosphorylation assay.
Chain of Hepatocyte growth factor receptor (Homo sapiens) (P08581 whole entry, the tested form may be a part): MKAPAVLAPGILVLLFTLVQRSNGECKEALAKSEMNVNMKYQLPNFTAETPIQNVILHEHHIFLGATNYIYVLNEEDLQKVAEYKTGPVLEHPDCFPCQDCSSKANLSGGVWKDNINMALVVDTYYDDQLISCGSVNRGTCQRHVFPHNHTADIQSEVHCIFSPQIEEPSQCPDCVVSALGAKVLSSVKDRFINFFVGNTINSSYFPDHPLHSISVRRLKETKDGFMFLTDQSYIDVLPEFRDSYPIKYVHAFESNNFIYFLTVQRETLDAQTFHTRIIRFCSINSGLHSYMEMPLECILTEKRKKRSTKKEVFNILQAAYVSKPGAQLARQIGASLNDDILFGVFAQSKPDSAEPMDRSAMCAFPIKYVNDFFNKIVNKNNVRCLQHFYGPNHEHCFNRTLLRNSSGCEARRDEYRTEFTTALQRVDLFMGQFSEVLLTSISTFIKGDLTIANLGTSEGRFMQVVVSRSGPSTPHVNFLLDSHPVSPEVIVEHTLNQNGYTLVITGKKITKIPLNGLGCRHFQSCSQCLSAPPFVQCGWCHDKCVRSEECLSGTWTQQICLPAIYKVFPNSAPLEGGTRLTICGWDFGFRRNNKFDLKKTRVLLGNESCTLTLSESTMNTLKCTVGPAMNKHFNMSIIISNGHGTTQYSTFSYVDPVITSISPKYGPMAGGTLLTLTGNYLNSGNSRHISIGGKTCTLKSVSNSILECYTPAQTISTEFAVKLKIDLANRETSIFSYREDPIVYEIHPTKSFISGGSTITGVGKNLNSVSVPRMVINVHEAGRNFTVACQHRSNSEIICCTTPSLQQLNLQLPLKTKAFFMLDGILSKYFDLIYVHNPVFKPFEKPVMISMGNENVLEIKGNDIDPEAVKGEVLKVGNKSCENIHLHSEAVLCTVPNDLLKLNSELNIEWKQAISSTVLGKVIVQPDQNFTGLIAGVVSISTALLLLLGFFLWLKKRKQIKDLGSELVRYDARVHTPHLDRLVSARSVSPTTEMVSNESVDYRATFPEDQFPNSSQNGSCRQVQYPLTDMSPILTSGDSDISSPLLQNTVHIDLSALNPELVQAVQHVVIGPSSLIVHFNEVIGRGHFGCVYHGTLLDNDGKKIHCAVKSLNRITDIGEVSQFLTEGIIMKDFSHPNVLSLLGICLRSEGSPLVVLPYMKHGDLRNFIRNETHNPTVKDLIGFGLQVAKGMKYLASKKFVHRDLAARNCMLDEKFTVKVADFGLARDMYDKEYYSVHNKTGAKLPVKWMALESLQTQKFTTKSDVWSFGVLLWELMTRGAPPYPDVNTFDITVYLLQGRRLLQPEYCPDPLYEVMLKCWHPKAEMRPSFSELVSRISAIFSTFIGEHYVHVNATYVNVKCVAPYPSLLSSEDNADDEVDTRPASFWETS

Chain of Protein kinase C delta type (Homo sapiens) (Q05655 whole entry, looked up, the tested form may be a part): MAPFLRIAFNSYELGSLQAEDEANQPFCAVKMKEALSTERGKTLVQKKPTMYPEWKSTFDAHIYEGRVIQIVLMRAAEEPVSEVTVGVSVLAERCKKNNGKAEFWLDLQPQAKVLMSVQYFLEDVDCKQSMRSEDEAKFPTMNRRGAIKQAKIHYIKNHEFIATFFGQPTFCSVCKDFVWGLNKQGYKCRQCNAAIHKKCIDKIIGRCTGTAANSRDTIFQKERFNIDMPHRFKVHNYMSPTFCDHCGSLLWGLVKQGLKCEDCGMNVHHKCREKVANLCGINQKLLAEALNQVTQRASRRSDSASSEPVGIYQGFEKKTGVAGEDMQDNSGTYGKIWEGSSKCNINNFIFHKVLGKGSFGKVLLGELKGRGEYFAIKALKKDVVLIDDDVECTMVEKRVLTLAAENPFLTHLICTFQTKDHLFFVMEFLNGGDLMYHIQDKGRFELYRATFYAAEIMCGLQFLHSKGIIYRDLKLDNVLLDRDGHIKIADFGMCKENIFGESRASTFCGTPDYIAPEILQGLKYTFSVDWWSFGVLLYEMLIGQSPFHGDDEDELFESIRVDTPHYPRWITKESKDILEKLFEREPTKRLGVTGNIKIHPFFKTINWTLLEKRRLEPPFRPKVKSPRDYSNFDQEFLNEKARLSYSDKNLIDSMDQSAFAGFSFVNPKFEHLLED
Chain of Platelet-derived growth factor receptor alpha (Homo sapiens) (P16234 whole entry, the tested form may be a part): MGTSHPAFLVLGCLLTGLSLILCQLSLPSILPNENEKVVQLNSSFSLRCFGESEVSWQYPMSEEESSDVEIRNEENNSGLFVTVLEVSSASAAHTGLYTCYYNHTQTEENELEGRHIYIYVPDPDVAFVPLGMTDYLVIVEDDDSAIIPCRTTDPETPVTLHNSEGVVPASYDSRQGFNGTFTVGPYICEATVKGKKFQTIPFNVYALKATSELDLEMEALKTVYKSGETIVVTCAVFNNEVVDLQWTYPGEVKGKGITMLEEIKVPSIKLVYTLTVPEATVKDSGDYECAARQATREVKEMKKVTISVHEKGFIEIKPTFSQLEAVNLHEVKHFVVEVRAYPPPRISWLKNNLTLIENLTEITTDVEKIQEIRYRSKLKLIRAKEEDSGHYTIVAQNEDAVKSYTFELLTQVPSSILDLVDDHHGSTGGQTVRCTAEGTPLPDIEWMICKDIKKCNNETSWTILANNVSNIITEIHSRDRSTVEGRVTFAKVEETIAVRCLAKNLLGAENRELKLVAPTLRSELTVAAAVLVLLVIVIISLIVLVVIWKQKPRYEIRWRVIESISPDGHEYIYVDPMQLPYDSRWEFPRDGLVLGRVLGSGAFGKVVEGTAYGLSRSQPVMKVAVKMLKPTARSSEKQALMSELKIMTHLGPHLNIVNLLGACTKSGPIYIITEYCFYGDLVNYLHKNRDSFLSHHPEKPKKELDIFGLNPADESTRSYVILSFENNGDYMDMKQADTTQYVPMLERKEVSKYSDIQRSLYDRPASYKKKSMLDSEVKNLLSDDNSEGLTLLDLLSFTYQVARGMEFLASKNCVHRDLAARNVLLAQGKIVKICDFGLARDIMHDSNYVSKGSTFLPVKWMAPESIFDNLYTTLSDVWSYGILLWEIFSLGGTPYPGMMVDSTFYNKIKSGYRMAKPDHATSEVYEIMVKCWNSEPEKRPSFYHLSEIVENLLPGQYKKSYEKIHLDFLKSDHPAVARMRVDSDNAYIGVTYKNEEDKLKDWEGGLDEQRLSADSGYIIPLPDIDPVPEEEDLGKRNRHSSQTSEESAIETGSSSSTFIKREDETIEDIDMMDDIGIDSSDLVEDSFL
Chain of Serine/threonine-protein kinase pim-1 (Homo sapiens) (P11309 whole entry, looked up): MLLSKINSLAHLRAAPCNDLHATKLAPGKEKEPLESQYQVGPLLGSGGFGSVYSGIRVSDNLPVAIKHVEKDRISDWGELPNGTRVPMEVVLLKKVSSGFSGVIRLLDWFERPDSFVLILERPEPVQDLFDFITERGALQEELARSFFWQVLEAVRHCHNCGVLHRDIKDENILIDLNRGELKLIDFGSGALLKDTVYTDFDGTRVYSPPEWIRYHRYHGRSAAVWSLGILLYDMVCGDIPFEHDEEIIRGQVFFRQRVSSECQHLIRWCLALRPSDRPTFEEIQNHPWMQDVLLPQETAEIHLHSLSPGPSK
Chain of Proto-oncogene tyrosine-protein kinase Src (Homo sapiens) (P12931 2-536 limits assumed): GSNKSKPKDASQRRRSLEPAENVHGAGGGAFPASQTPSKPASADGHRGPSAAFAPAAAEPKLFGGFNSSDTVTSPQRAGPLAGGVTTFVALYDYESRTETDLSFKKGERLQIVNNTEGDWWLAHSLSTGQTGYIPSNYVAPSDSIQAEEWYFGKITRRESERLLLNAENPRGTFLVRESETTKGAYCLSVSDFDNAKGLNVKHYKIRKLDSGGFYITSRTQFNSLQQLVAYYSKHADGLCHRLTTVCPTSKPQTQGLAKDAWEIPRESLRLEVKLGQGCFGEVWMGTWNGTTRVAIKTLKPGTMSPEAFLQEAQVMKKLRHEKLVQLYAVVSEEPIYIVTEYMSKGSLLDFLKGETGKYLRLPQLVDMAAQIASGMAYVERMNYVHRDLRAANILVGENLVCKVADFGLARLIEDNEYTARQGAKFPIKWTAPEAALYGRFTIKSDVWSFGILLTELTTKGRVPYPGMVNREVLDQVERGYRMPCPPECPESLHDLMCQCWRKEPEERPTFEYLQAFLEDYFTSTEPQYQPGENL
Chain of Tyrosine-protein kinase Lck (Homo sapiens) (P06239 2-509 limits assumed): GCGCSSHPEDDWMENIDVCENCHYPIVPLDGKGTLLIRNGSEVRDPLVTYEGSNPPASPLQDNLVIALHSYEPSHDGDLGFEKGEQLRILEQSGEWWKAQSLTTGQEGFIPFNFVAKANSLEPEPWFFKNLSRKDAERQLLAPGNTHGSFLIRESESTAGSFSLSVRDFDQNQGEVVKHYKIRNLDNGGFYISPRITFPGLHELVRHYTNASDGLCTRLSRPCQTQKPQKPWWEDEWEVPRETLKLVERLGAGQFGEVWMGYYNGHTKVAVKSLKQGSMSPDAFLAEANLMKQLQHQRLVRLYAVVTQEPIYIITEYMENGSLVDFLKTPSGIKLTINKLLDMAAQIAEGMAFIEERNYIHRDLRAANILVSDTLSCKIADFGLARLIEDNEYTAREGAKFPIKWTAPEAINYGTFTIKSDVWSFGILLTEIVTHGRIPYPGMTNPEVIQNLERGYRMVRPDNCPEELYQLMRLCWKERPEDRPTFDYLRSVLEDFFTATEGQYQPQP

`NCC1CCN(c2ncnc3[nH]ccc23)CC1`: the inhibition in assay [1] stood at 20.5%; in assay [2], 53%.

Take `C[C@H](CN(C)C)Oc1nc(Nc2cc3cccc(Cl)c3cn2)cnc1C#N`: the inhibition worked out at 3% in [3] and 5.5% in assay [4].

Regarding `NC1(Cc2ccc(Cl)cc2)CCN(c2ncnc3[nH]ccc23)CC1`, the inhibition in assay [5] turned out to be 0%.

For `Clc1ccc(C2(c3ccc(-c4ncnc5[nH]cnc45)cc3)CCNCC2)cc1`, in assay [6], the inhibition was 37.5%.

As to `NCC1CN(c2ncnc3[nH]c4cnccc4c23)CCO1` (centres undefined), the inhibition in [7] amounted to 34.5%; in assay [8], 81%; in assay [9], 36.5%.

Take `CNCc1ccc(-c2ncnc3[nH]cnc23)cc1`: the inhibition in [10] worked out at 38%; in assay [11], 27.5%.

Consider `NC1CCN(c2ncnc3[nH]ccc23)CC1`, for which, in assay [12], the inhibition stood at 5%.

`NCCc1ccc(-c2ncnc3[nH]cnc23)cc1`: the inhibition in assay [13] worked out at 72%.

With `c1cnc2[nH]ccc2c1`, the inhibition in [14] came to 55%.
